Values quoted from earlier work as cited in patent publication US20050232985A1, “Ciprofloxacin hcl” (priority 2002, published 2005).
Where a name gives a salt, the structure may show the parent alone.

Legend:
[1] = test system: Excherichia Coli, Klebsiella SPP., and other Enterobacter SPP., Bacillus—negative
[2] = test system: Pseudomonas aerugenosa, golden yellow Staphylococcus and Streptococcus pneumoniae

For `O=C(O)c1cn(C2CC2)c2cc(N3CCNCC3)c(F)cc2c1=O` [Ciprofloxacin Hydrochloride, I-cyclopropyl-6-fluoro-1,4-dihydro-4-oxo-7-(I-piperazinyl)-3-quinolinecarboxylic acid], which antibacterial activity [1] is on record?
The antibacterial activity was “wide range antibacterial activity”.

What about the “antibacterial action versus Norfloxacin and Peifloxacin” value [2] of the same compound?
The value was “better than other known derivatives”.

And the “antibacterial action versus Penicillin kinds of antibiotic” value (Streptococcus SPP.)?
Its value is “less than Penicillin kinds of antibiotic”.
